In ChEMBL document CHEMBL1201862, “PubChem BioAssay data set” (2004):
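Five compound concentrations were applied to cells in 96-well plates for 48 hours; endpoints were derived by simple linear interpolation of the resulting dose-response curve. The concentration for 50% growth inhibition is given as GI50.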 Calls of active or inactive are those of the source. Cut-off read from the data, not from the text of the source: active = GI50 up to about 1.1 µM and inactive = higher.

How the values were obtained:
Assay in all cases: NCI anticancer screen, dose series, 48 h
[1] = system: MOLT-4
[2] = system: OVCAR-3
[3] = system: CCRF-CEM
[4] = system: HL-60
[5] = system: HCT-116
[6] = system: NCI/ADR-RES
[7] = system: HOP-92
[8] = system: SNB-78
[9] = system: OVCAR-4
[10] = system: EKVX
[11] = system: OVCAR-8
[12] = system: Malme-3M
[13] = system: U-251
[14] = system: COLO 205
[15] = system: SF-295
[16] = system: SK-MEL-28
[17] = system: OVCAR-5
[18] = system: RXF 393
[19] = system: SK-MEL-2
[20] = system: SW-620
[21] = system: K562
[22] = system: NCI-H226
[23] = system: NCI-H522
[24] = system: KM12
[25] = system: SF-268
[26] = system: KM-20L2
[27] = system: HCC 2998
[28] = system: HT-29
[29] = system: XF498
[30] = system: HCT-15
[31] = system: SNB-19
[32] = system: DMS-114
[33] = system: DLD-1
[34] = system: UACC-257
[35] = system: SF-539
[36] = system: SNB-75
[37] = system: SN12C
[38] = system: A498
[39] = system: UO-31
[40] = system: M19-MEL
[41] = system: DMS-273
[42] = system: MCF7
[43] = system: LOX IMVI
[44] = system: RPMI-8226
[45] = system: NCI-H23
[46] = system: SK-MEL-5
[47] = system: IGROV-1
[48] = system: NCI-H460
[49] = system: HOP-62
[50] = system: A549
[51] = system: SK-OV-3
[52] = system: SR
[53] = system: ACHN
[54] = system: 786-0
[55] = system: M14
[56] = system: LXFL 529
[57] = system: TK-10
[58] = system: UACC-62
[59] = system: HOP-18
[60] = system: CAKI-1

Measured: GI50

COc1cc(-c2ccc(/N=N/c3c(S(=O)(=O)O)cc4cc(S(=O)(=O)O)cc(N)c4c3O)c(OC)c2)ccc1/N=N/c1c(S(=O)(=O)O)cc2cc(S(=O)(=O)O)cc(N)c2c1O
59.6 µM: [30]
inactive: [1] > 82.6 µM | [2] > 62.8 µM | [3] > 88.3 µM | [4] 29.9 µM | [5] > 100 µM | [6] > 100 µM | [7] 34 µM | [8] 78.3 µM | [9] > 57 µM | [10] 88.5 µM | [11] > 100 µM | [12] > 100 µM | [13] > 100 µM | [14] > 100 µM | [15] > 100 µM | [16] > 100 µM | [17] > 100 µM | [18] > 100 µM | [19] > 100 µM | [20] 73.5 µM | [21] > 78.7 µM | [22] > 62.1 µM | [23] > 100 µM | [24] > 86.1 µM | [25] > 100 µM | [26] 35 µM | [27] > 100 µM | [28] > 62.1 µM | [29] 6.89 µM | [31] > 100 µM | [32] 73.1 µM | [33] > 94 µM | [34] > 100 µM | [35] > 100 µM | [36] 37.4 µM | [37] > 100 µM | [38] > 100 µM | [39] > 80.4 µM | [40] > 100 µM | [41] > 74.6 µM | [42] > 100 µM | [43] > 90.6 µM | [44] > 100 µM | [45] > 100 µM | [46] > 100 µM | [47] > 100 µM | [48] > 100 µM | [49] > 100 µM | [50] > 77.4 µM | [51] > 100 µM

O=c1cc(-c2ccccc2)oc2cc(O)cc(O)c12 [CHRYSIN]
20.4 µM: [30]
inactive: [1] 18.3 µM | [52] 23 µM | [2] 28.8 µM | [3] 19.4 µM | [53] 15.2 µM | [4] 16.8 µM | [5] 15.2 µM | [7] 16.4 µM | [8] 28.8 µM | [9] 29.8 µM | [10] 23.1 µM | [54] 23.6 µM | [12] 24.3 µM | [13] 21.7 µM | [55] 33 µM | [14] 18.5 µM | [15] 14.9 µM | [16] 16.8 µM | [17] 18.6 µM | [19] 17.9 µM | [21] 22.8 µM | [22] 20.6 µM | [23] 15.9 µM | [24] 15.5 µM | [25] 23.1 µM | [26] 23.9 µM | [27] 19.8 µM | [28] 23.4 µM | [29] 20 µM | [56] 21.1 µM | [31] 18.5 µM | [32] 22.4 µM | [34] 21.1 µM | [35] 15.1 µM | [36] 10.3 µM | [37] 17.9 µM | [39] 20.4 µM | [40] 25.5 µM | [41] 16.2 µM | [57] 34.5 µM | [58] 21.5 µM | [43] 14.7 µM | [44] 16 µM | [45] 20.9 µM | [46] 10.1 µM | [47] > 10 µM | [48] 14.2 µM | [49] 31.4 µM | [50] 27 µM | [51] 27.9 µM

Nc1c(C(=O)NC23CC4CC(CC(C4)C2)C3)[n+]([O-])c2ccccc2[n+]1[O-]
inactive: [1] > 100 µM | [2] > 100 µM | [3] > 100 µM | [53] > 100 µM | [4] > 100 µM | [7] 90.4 µM | [8] > 100 µM | [59] > 100 µM | [9] > 100 µM | [10] > 100 µM | [54] > 100 µM | [11] > 100 µM | [12] > 100 µM | [13] > 100 µM | [55] > 100 µM | [14] > 100 µM | [15] > 100 µM | [16] > 100 µM | [17] > 100 µM | [19] > 100 µM | [20] > 100 µM | [21] > 100 µM | [22] > 100 µM | [23] > 100 µM | [24] > 100 µM | [25] > 100 µM | [26] > 100 µM | [27] > 100 µM | [28] > 100 µM | [29] > 100 µM | [56] > 100 µM | [31] > 100 µM | [33] > 100 µM | [34] > 100 µM | [35] > 100 µM | [36] > 100 µM | [37] > 100 µM | [38] > 100 µM | [39] > 100 µM | [40] > 100 µM | [41] > 100 µM | [57] > 100 µM | [58] > 100 µM | [43] > 100 µM | [60] > 100 µM | [44] > 100 µM | [45] > 100 µM | [46] > 100 µM | [47] > 100 µM | [48] > 100 µM | [49] > 100 µM | [50] > 100 µM | [51] > 100 µM
> 100 µM: [30]
